In patent US10725057B2, “Method for pretreatment and method for analysis of lenalidomide in biological sample” (Shiseido Company, Ltd, priority 2014, dated 2020):

Legend:
[1] = Dependence of racemization of lenalidomide enantiomers on pH in aqueous buffers at room temperature; assay type: physicochemical
[2] = Racemization half-life in human serum (37° C.); conditions: for racemization half-life in serum, times longer than the corresponding TD enantiomer: human serum, 37° C.; for half-life in human serum compared to buffer: pH 7.4
Text: The analysis method of the invention is shown as FIG. 15(b). The acid used to suspend the reaction while simultaneously precipitating and removing the protein was HClO4.
(§1) Apparatus: Nanospace SI-2 Series (Shiseido Corp.)

[3] = Racemization half-life under biological buffer conditions (Na-phosphorate buffer pH 7.4, 37° C.); conditions: average of 3 tests ± SD
[4] = Stability of lenalidomide in different solvents (HPLC peak areas of the enantiomers); assay type: physicochemical; conditions: 0.5 mg/mL racemic mixture, room temperature or 50° C., 24 hours
Protocol: A racemic mixture of 0.5 mg/mL lenalidomide in methanol, ethanol, isopropanol, acetonitrile or ethyl acetate, as the sample (product of Selleck Chemicals, US) was incubated at room temperature or at 50° C. for 24 hours, and the following HPLC conditions were employed for quantification of the lenalidomide enantiomers, for evaluation of the stability of lenalidomide in the different solvents.
as §1
Mobile phase: EtOH (100%)
Injection volume: 5 μL, Detection: UV 230 nm.
The peak areas for the enantiomers before and after incubation are shown in FIG. 1 (the initially observed peaks are enantiomer 1, and the next observed peaks are enantiomer 2). […] Lenalidomide was also stable even in isopropanol.

[5] = tested on: recurrent intractable multiple myeloma; conditions: in combination with dexamethasone; cited from earlier work
[6] = tested on: corneal vascularization elicited by bFGF or VEGF; conditions: compared to the R-form or racemic form (NPL 6); cited from earlier work
[7] = human blood plasma (NPL 10); cited from earlier work
[8] = NPL 5; cited from earlier work

## Nc1cccc2c1CN([C@H]1CCC(=O)NC1=O)C2=O (single isomer, unassigned) [(S*)-LL]
[1]; pH 6, room temperature
  racemization on incubation in aqueous buffer: A small amount of (R*)-LL was produced
[1]; pH 7 and higher, room temperature
  racemization on incubation in aqueous buffer: racemization was significantly accelerated
[2]
  racemization half-life in serum, times longer than the corresponding TD enantiomer: 6 times
  racemization half-life in human serum: 2.18 ± 0.0817 h
[3]
  racemization half-life in aqueous buffer: 4.53 ± 0.0217 h

## O=C1CC[C@@H](N2C(=O)c3ccccc3C2=O)C(=O)N1 [(R)-TD, R-thalidomide]
[2]
  racemization half-life in human serum: 0.548 ± 0.417 h
  half-life in human serum compared to buffer: 11.1%
[3]
  racemization half-life in aqueous buffer: 4.92 ± 0.4 h

## Nc1cccc2c1CN(C1CCC(=O)NC1=O)C2=O (racemic) [lenalidomide, Lenalidomide]
[4]; acetonitrile and ethyl acetate
  stability in solvent (decomposition): no decomposition was observed
[4]; isopropanol
  stability in solvent: stable
[4]; methanol and ethanol
  stability in solvent: highly unstable
[1]; acidic conditions (<pH 4)
  stability of the enantiomers: stable
[1]; aqueous buffers pH 4 to 9, room temperature
  increase of racemization half-life for every pH reduction of 1: 10 times
[1]; pH 4, room temperature
  racemization half-life: estimation of the half-life was no longer possible
[1]; pH 9 and 8, room temperature
  racemization and decomposition (peak areas) in aqueous buffer: racemization and decomposition of LL takes place
[5]
  success rate: 60%

## 3-amino-phthalimide-glutarimide [S-pomalidomide]
[6]
  inhibition of corneal vascularization: significantly inhibit

## Nc1cccc2c1CN([C@@H]1CCC(=O)NC1=O)C2=O (single isomer, unassigned) [(R*)-LL]
[2]
  racemization half-life in serum, times longer than the corresponding TD enantiomer: 3 times
  racemization half-life in human serum: 1.82 ± 0.0333 h
[3]
  racemization half-life in aqueous buffer: 4.45 ± 0.0183 h

## O=C1CC[C@H](N2C(=O)c3ccccc3C2=O)C(=O)N1 [(S)-TD, S-thalidomide]
[2]
  racemization half-life in human serum: 0.363 ± 0.0167 h
  half-life in human serum compared to buffer: 8.2%
[3]
  racemization half-life in aqueous buffer: 4.43 ± 0.167 h

## O=C1CCC(N2C(=O)c3ccccc3C2=O)C(=O)N1 (racemic) [thalidomide]
[7]
  racemization half-life in human blood plasma: approximately 10 minutes
[8]
  sedative action: only been reported with the R-form
